Reference: patent EP0982399B1, “Thyroid hormone transporters, agonists and antagonists thereof” (Stichting tot bevordering van de wetenschap der …, priority 1998, dated 2000)
Structures can show the parent of a compound that is named as a salt.

Legend:
[1] = Uptake of [125I]iodothyronine derivatives by Xenopus laevis oocytes injected with Ntcp cRNA; settings: for uptake ratio at 1 h: oatp1, choline
Experimental: (§1) For capping, the m7G[5']ppp[5']G cap analog was used (Epicentre Technologies). cRNA was stored in water at -80 C at a concentration of 0.1 mg/ml.
(§2) Oocytes were prepared as described previously (9). After isolation, the oocytes were sorted on morphological criteria and defolliculated manually. […] The next day, oocytes were injected with 23 nl water containing 23 ng mRNA, 2.3 ng Ntcp cRNA or 2.3 ng oatp1 cRNA using the Nanoject system (Drummond Scientific, Broomall, PA). Injected and uninjected oocytes were maintained for 2-3 days at 18 C in modified Barth's solution.
(§3) Uptake assays were performed as described previously (9). […] After 1 h, incubation buffer was removed and the oocytes were washed four times with 2.5 ml ice-cold Na^+-containing incubation buffer supplemented with 0.1% BSA. Oocytes were transferred to new tubes and counted individually.

[2] = tested on: Na^+-independent organic anion transporting polypeptide (oatp1); test: Uptake of [125I]iodothyronine derivatives by Xenopus laevis oocytes injected with oatp1 cRNA; settings: oatp1 cRNA-injected oocytes; 1-2 nM ligand; Na^+ medium
Experimental: as §1, §2, §3

| uptake ratio at 1 h, 100 µM ([1]; xenopus oocytes, ntcp crna) | SMILES | uptake ratio at 1 h, 100 µM [1] | uptake ratio at 1 h ([1]; xenopus oocytes) | uptake ratio at 1 h, 100 µM ([1]; xenopus oocytes, oatp1 crna) | uptake higher than that of the other sulfates [2] [%] |
| --- | --- | --- | --- | --- | --- |
| – | N[C@@H](Cc1ccc(Oc2ccc(O)c(I)c2)c(I)c1)C(=O)O [3,3'-T2, 3,3'-diiodothyronine] | 1.3 | 1.8 | 1.4 | – |
| – | NC(Cc1cc(I)c(Oc2ccc(OS(=O)(=O)O)c(I)c2)c(I)c1)C(=O)O (stereo not shown) [T3S, T3 sulfate] | – | – | – | ~50 |
| 1.9 | N[C@@H](Cc1cc(I)c(Oc2cc(I)c(O)c(I)c2)c(I)c1)C(=O)O [T4, 3,3',5,5'-tetraiodothyronine] | – | 3.8 | 2.8 | – |
| – | N[C@@H](Cc1ccc(Oc2cc(I)c(O)c(I)c2)c(I)c1)C(=O)O [rT3, 3,3',5'-triiodothyronine] | 1.8 | 8.5 | 6 | – |
